From PubChem BioAssay (NCI)
Values joined by “and” are separate entries in the source; they are usually repeats but may differ in a detail not shown here. Equal values may be shown once.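 Each compound was tested at five concentrations against cells in 96-well plates for 48 hours. At the GI50, growth is halved. TGI marks complete inhibition of growth.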

System: LOX IMVI melanoma
Experiment: growth of human tumour cells (NCI), 48 h

Structure (SMILES) | GI50 | TGI
COc1ccc(CN2CCCC(C(=O)c3ccc(C(F)(F)F)cc3)C2)c(O)c1 (centres undefined) | 18.4 µM | 35.3 µM
O=S(=O)(O)C(O)/C=C/c1ccccc1 (centres undefined) | – | > 100 µM
OCCNCO | – | > 100 µM
CC1=C2[C@@H](CC1)[C@]1(C)O[C@@](C(C)C)(C[C@H]1OC(=O)[C@H](C)O)[C@H]2OC(=O)/C=C/c1ccccc1 | 15.1 µM | 30.7 µM
O=C(Cc1ccc(/C=C/C(=O)c2ncc[nH]2)cc1)Nc1ccc(Cl)cc1 | 0.87 µM | 3.48 µM
Cc1c(C(=O)/C=C/c2cccc3ccccc23)[n+](=O)c2ccccc2n1[O-] | – | 20.6 µM
COC(=O)c1c2c(c(C)[n+]([O-])c1C)C(=O)C=CC2=O | 1.44 µM | 3.04 µM
C[C@@H]1Cc2c([nH]c3ccccc23)[C@@H](c2c(F)cc(/C=C/C(=O)O)cc2F)N1CC(C)(C)F | 12.3 µM | 27.2 µM
O=C1CCC(NC(=O)c2ccccc2)C(=O)N1 (centres undefined) | – | > 100 µM
CC1(C)N=C(N)N=C(N)N1c1ccc(CCCCc2ccc(S(=O)(=O)F)cc2Cl)c(Cl)c1 | – | 43.9 µM
CN(C)c1ccc(/C=C2\C[N+](C)(C)C/C(=C\c3ccc(N(C)C)cc3)C2=O)cc1 | – | 36.4 µM
NS(=O)(=O)c1ccc(-n2nc(-c3ccc(Br)cc3)ccc2=O)cc1 | > 10 µM | > 10 µM
Cn1cc(C2=C(c3ccc(OC[C@@H](O)CO)cc3)C(=O)NC2=O)c2ccccc21 | > 25 µM | > 25 µM
CCOC(=O)c1cc(-c2ccc([N+](=O)[O-])cc2)n(-c2ccc(C(=O)O)c(O)c2)c1C | 2.85 µM | 11 µM
N#Cc1cnn2ccn(C3OC(COC(=O)c4ccccc4)C(OC(=O)c4ccccc4)C3OC(=O)c3ccccc3)c12 (centres undefined) | – | > 31.6 µM
CCOc1ccc2nc(NC(=O)/C(CC(=O)CC(C3=C(O)c4ccccc4CC3=O)c3ccccc3)=N\O)sc2c1 (centres undefined) | – | > 100 µM
CCN1CCN(c2nc(NCCNc3ccnc4cc(Cl)ccc34)c3ccccc3n2)CC1 | 1.51 µM | 3.01 µM
CN(C)c1ccc2c(c1)oc(=O)c1ccccc12 | – | 18.7 µM
CC1=C[C@@H]2Cc3occc3C(C)(C)[C@@H]2CC1 | – | 33.6 µM
CC(=O)c1ccc(N(/C=C/C(=O)C(F)(F)F)CC(=O)c2ccc(Cl)c(Cl)c2)cc1 | 12.4 µM | 26.8 µM
O=c1c(Cl)c(Cl)cnn1-c1ccccc1 | – | 3.26 µM and 4.03 µM
COc1cccc(-c2nn(-c3ccccc3)cc2-c2ccnc(NCCCNS(=O)(=O)c3cccc(F)c3)c2)c1 | 4.05 µM | > 100 µM
C#CC(C)(C)Oc1cc(O)c2c(=O)c3ccccc3n(C)c2c1 | – | 44.3 µM
CC[n+]1ccc2c(c1)C(=O)c1nccc3c1c-2nc1ccccc13 | 2.19 µM | 7.93 µM

System: HT29 colon
Experiment: growth of human tumour cells (NCI), 48 h

Structure (SMILES) | GI50 | TGI
N#Cc1nc(-c2ccc(F)cc2)oc1S(=O)(=O)N1CCOCC1 | 3.11 µM | > 100 µM
Cc1c(Cl)cccc1Nc1ncccc1C(=O)O | > 100 µM | > 100 µM
COc1cc2c(c(O)c1C)C(=O)C(Cl)=CC2=O | – | 21.9 µM
Fc1ccc(-c2nn(-c3ccccc3)cc2-c2nc3ccccc3o2)cc1 | 9.46 µM | 30.4 µM
CN=C1NC(=O)/C(=C/c2ccc3ncccc3c2)S1 | 9.14 µM | > 25 µM
CN(C)CCNC(=O)c1cccc2nc3c(Cl)cccc3nc12 | – | 15.9 µM
COc1ccc(CN2CCCC(C(=O)c3ccc(C(F)(F)F)cc3)C2)c(O)c1 (centres undefined) | 14.4 µM | 33.9 µM
O=S(=O)(O)C(O)/C=C/c1ccccc1 (centres undefined) | – | > 100 µM
OCCNCO | – | > 100 µM
CC1=C2[C@@H](CC1)[C@]1(C)O[C@@](C(C)C)(C[C@H]1OC(=O)[C@H](C)O)[C@H]2OC(=O)/C=C/c1ccccc1 | 13.6 µM | 30 µM
O=C(Cc1ccc(/C=C/C(=O)c2ncc[nH]2)cc1)Nc1ccc(Cl)cc1 | 0.886 µM | 2.96 µM
Cc1c(C(=O)/C=C/c2cccc3ccccc23)[n+](=O)c2ccccc2n1[O-] | – | 24.8 µM
COC(=O)c1c2c(c(C)[n+]([O-])c1C)C(=O)C=CC2=O | 2.41 µM | 6.54 µM
C[C@@H]1Cc2c([nH]c3ccccc23)[C@@H](c2c(F)cc(/C=C/C(=O)O)cc2F)N1CC(C)(C)F | 14.5 µM | 31.3 µM
